Reference: patent US20090221559A1 (priority 2005, published 2009)
pEC50, pIC50: −log10 of the molar value. Like-named read-outs stand apart in the source and are kept apart here.

What was measured:
[1] = tested on: HCV replicon RNA replication in Huh-7 luc/neo (Huh-Luc) cells; assay: HCV replicon assay (stable replicon cell reporter assay, luciferase read-out); format: cell-based, HCV type 1b
Procedure, shortened: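 Huh-7 cells stably carry a bicistronic HCV 1b NS3-NS5B subgenomic replicon with firefly luciferase and neo markers. Cells were plated with compound across a concentration range and incubated three days. Replication was measured as luciferase activity to give dose-response curves.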

[2] = target: T1, HCV NS5B polymerase (His-tagged, C-terminal 21 amino acid deleted NS5B, HC-J4) (Hepatitis C virus genotype 1b, UniProt O92972); assay: NS5b polymerase assay (biochemical RdRp assay, 3H-GTP incorporation, SPA beads); set-up: species or system HCV genotype 1b; settings: 3H-GTP incorporation, 2 h at 25° C.
T1 construct: The cDNA encoding NS5B amino acid 1-570 (HC-J4, genotype 1b); His tag (His6, from pET-21b) (C); made in house; host or cells: E. coli BL21 (DE3)
T1 sequence (O92972 2417-3000, looked up, stated change not applied): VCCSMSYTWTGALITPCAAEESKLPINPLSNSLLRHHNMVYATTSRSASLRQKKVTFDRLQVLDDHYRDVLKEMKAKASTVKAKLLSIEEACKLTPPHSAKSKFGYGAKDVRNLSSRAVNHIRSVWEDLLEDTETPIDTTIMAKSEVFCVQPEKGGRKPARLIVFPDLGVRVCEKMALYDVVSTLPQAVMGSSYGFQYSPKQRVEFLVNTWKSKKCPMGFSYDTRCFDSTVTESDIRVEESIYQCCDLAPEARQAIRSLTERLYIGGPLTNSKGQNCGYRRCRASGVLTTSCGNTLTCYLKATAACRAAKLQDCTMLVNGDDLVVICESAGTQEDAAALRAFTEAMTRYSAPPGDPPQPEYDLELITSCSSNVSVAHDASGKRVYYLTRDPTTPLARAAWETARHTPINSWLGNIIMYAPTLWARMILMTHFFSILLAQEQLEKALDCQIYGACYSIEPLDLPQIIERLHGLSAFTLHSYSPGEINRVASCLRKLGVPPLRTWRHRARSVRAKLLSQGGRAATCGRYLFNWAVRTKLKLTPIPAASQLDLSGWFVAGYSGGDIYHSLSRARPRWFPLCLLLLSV
Procedure, shortened: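 His-tagged C-terminal-21-aa-deleted NS5B (genotype 1b, HC-J4) at 200 nM was preincubated 15 min at RT with compound on 5′-biotinylated oligo(rG13)/poly(rC) template/primer before NTPs. Reaction with 600 nM GTP plus 0.1 μCi 3H-GTP and 5 mM MgCl2 in Tris pH 7.5 ran 2 h at 25 °C. Stopped with EDTA/SPA beads for incorporation counting.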

[3] = Hepatitis C virus, Huh-7, 72 h, read-out: Replicon Assay EC50, Huh-Luc cells, three days incubation, luciferase activity
[4] = NS5B Polymerase Assay IC50, 200 nM enzyme

SMILES | pEC50 [1, 3] | pIC50 [2, 4] | pEC50 ([1]; Huh-Luc cells, three days incubation, luciferase activity, read-out: Replicon Assay EC50) | pIC50 ([2]; 200 nM enzyme, read-out: NS5B Polymerase Assay IC50)
COc1c(Cl)cc(Cl)cc1C1C2=C(CC(C)(C)CC2=O)Nc2ccccc2N1C(C)=O (stereo not shown) [compound 73] | 4.70 | < 4.37 |  | 
CC1(C)CC(=O)C2=C(C1)Nc1ccccc1N(C(=O)c1ccccc1)C2c1ccc(Br)cc1 (stereo not shown) [compound 74] | < 4.57 | < 4.37 |  | 
CCC(=O)N1c2ccccc2NC2=C(C(=O)CC(C)(C)C2)C1c1ccc(OC)cc1OC (stereo not shown) [compound 75] | 4.69 | < 4.37 |  | 
CN(C)c1ccc(C2C3=C(CC(C)(C)CC3=O)Nc3ccccc3N2C(=O)Nc2ccc(Cl)c(Cl)c2)cc1 (stereo not shown) [compound 76] | 5.20 | < 4.48 |  | 
CC1(C)CC(=O)C2=C(C1)Nc1ccccc1N(C(=O)c1ccccc1)C2c1ccc(F)cc1 (stereo not shown) [compound 77] | 4.67 | < 4.37 |  | 
CC(C)CC(=O)N1c2ccccc2NC2=C(C(=O)CC(C)(C)C2)C1c1ccc(Cl)c(Cl)c1 (stereo not shown) [compound 78] | 4.65 | < 4.48 |  | 
CCCCOc1cccc(C2C3=C(CC(C)(C)CC3=O)Nc3ccccc3N2C(C)=O)c1 (stereo not shown) [compound 79] | 4.50 | < 4.37 |  | 
CCCCC(=O)N1c2ccccc2NC2=C(C(=O)CC(C)(C)C2)C1c1ccc(OC)c(OC)c1 (stereo not shown) [compound 80] | 5.02 | < 4.48 |  | 
COc1ccccc1C1C2=C(CC(C)(C)CC2=O)Nc2ccccc2N1C(=O)Cc1ccccc1 (stereo not shown) [compound 81] | 5.17 | < 4.37 |  | 
COc1cccc(C2C3=C(CC(C)(C)CC3=O)Nc3ccccc3N2C(=O)Cc2ccccc2)c1 (stereo not shown) [compound 82] | 5.17 | < 4.37 |  | 
CCCCCC(=O)N1c2ccccc2NC2=C(C(=O)CC(C)(C)C2)C1c1ccc(OC(C)C)cc1 (stereo not shown) [compound 83] | 5.38 | < 4.37 |  | 
CCC(=O)N1c2ccccc2NC2=C(C(=O)CC(C)(C)C2)C1c1ccc(OC)c(OC)c1 (stereo not shown) [compound 84] | 4.68 | < 4.37 |  | 
CCOc1ccc(C2C3=C(CC(C)(C)CC3=O)Nc3ccccc3N2C(=O)Cc2ccc(Cl)cc2)cc1 (stereo not shown) [compound 85] | 4.67 | < 4.37 |  | 
CCOc1ccc(C2C3=C(CC(C)(C)CC3=O)Nc3ccccc3N2C(=O)Cc2ccccc2)cc1 (stereo not shown) [compound 86] | 5.01 | < 4.37 |  | 
CC1(C)CC(=O)C2=C(C1)Nc1ccccc1N(C(=O)C(F)(F)F)C2c1ccccc1Cl (stereo not shown) [compound 87] | < 4.49 | < 4.37 |  | 
CC1(C)CC(=O)C2=C(C1)Nc1ccccc1N(C(=O)c1ccccc1)C2c1ccc(Cl)cc1 (stereo not shown) [compound 88] | 5.21 | 4.73 |  | 
CC1(C)CC(=O)C2=C(C1)Nc1ccccc1N(C(=O)C(F)(F)F)C2c1ccc([N+](=O)[O-])cc1 (stereo not shown) [compound 89] | 5.27 | < 4.37 |  | 
CCCCOc1ccc(C2C3=C(CC(C)(C)CC3=O)Nc3ccccc3N2C(=O)c2ccccc2)cc1 (stereo not shown) [compound 91] | 5.09 | < 4.37 |  | 
CC1(C)CC(=O)C2=C(C1)Nc1ccccc1N(C(=O)c1ccccc1)C2c1ccccc1 (stereo not shown) [compound 92] | 4.76 | < 4.37 |  | 
CCCCCC(=O)N1c2ccccc2NC2=C(C(=O)CC(C)(C)C2)C1c1ccccc1OC(C)CC (stereo not shown) [compound 93] | 5.39 | < 4.37 |  | 
CC1(C)CC(=O)C2=C(C1)Nc1ccccc1N(C(=O)c1ccccc1)C2c1ccccc1F (stereo not shown) [compound 94] | 5.47 | < 4.37 |  | 
COc1ccc(OC)c(C2C3=C(CC(C)(C)CC3=O)Nc3ccccc3N2C(=O)C(F)(F)F)c1Br (stereo not shown) [compound 96] | 4.94 | < 4.37 |  | 
CCCCC(CC)C(=O)N1c2ccccc2NC2=C(C(=O)CC(C)(C)C2)C1c1ccc(OCCC)c(OC)c1 (stereo not shown) [compound 98] | 5.13 | < 4.37 |  | 
CC(C)C(=O)N1c2ccccc2NC2=C(C(=O)CC(C)(C)C2)C1c1ccc(OCc2ccccc2)cc1 (stereo not shown) [compound 99] | 5.43 | < 4.37 |  | 
CC(C)Oc1ccc(C2C3=C(CC(C)(C)CC3=O)Nc3ccccc3N2C(=O)C(F)(F)F)cc1 (stereo not shown) [compound 100] | 5.44 | < 4.37 |  | 

SMILES | pEC50 [1, 3] | pIC50 [2, 4] | pEC50 ([1]; Huh-Luc cells, three days incubation, luciferase activity, read-out: Replicon Assay EC50) | pIC50 ([2]; 200 nM enzyme, read-out: NS5B Polymerase Assay IC50)
CCCCCOc1ccc(C2C3=C(CC(C)(C)CC3=O)Nc3ccccc3N2C(C)=O)cc1 (stereo not shown) [compound 102] | < 4.49 | < 4.37 |  | 
CC(=O)N1c2ccccc2NC2=C(C(=O)CC(C)(C)C2)C1c1cccc([N+](=O)[O-])c1 (stereo not shown) [compound 103] | < 4.49 | < 4.37 |  | 
CC(=O)N1c2ccccc2NC2=C(C(=O)CC(C)(C)C2)C1c1cccc(F)c1 (stereo not shown) [compound 104] | < 4.49 | < 4.37 |  | 
COc1cccc(C2C3=C(CC(C)(C)CC3=O)Nc3ccccc3N2C(C)=O)c1 (stereo not shown) [compound 105] | < 4.49 | < 4.37 |  | 
COc1ccc(C2C3=C(CC(C)(C)CC3=O)Nc3ccccc3N2C(=O)C(F)(F)F)cc1OC (stereo not shown) [compound 106] | < 4.49 | < 4.37 |  | 
CN(C)c1ccc(C2C3=C(CC(C)(C)CC3=O)Nc3ccccc3N2C(=O)C(F)(F)F)cc1 (stereo not shown) [compound 108] | < 4.49 | < 4.37 |  | 
CCN(CC)c1ccc(C2C3=C(CC(C)(C)CC3=O)Nc3ccccc3N2C(=O)C(F)(F)F)cc1 (stereo not shown) [compound 109] | < 4.49 | < 4.37 |  | 
COc1ccc(C2C3=C(CC(C)(C)CC3=O)Nc3ccccc3N2C(=O)C(F)(F)F)cc1 (stereo not shown) [compound 110] | 5.09 | < 4.37 |  | 
CC(=O)N1c2ccccc2NC2=C(C(=O)CC(C)(C)C2)C1c1ccc(Cl)cc1 (stereo not shown) [compound 111] | < 4.49 | < 4.37 |  | 
CC(=O)N1c2ccccc2NC2=C(C(=O)CC(C)(C)C2)C1c1ccccc1Cl (stereo not shown) [compound 112] | < 4.49 | < 4.37 |  | 
CC1(C)CC(=O)C2=C(C1)Nc1ccccc1N(C(=O)c1ccc(F)cc1)C2c1ccc(Br)cc1 (stereo not shown) [compound 113] | < 4.49 | < 4.37 |  | 
CC(=O)N1c2ccccc2NC2=C(C(=O)CC(C)(C)C2)C1c1ccc(OC(C)C)cc1 (stereo not shown) [compound 114] | < 4.49 | < 4.37 |  | 
CCCCOc1ccc(C2C3=C(CC(C)(C)CC3=O)Nc3ccccc3N2C(=O)C(F)(F)F)cc1 (stereo not shown) [compound 115] | 4.84 | < 4.37 |  | 
COc1c(Cl)cc(Cl)cc1C1C2=C(CC(C)(C)CC2=O)Nc2ccccc2N1C(=O)C(F)(F)F (stereo not shown) [compound 116] | < 4.49 | < 4.37 |  | 
CC(=O)N1c2ccccc2NC2=C(C(=O)CC(C)(C)C2)C1c1cccc(O)c1 (stereo not shown) [compound 117] | < 4.49 | < 4.37 |  | 
COc1ccc(OC)c(C2C3=C(CC(C)(C)CC3=O)Nc3ccccc3N2C(C)=O)c1 (stereo not shown) [compound 118] | < 4.49 | < 4.37 |  | 
COc1ccc(C2C3=C(CC(C)(C)CC3=O)Nc3ccccc3N2C(C)=O)cc1OC (stereo not shown) [compound 119] | < 4.49 | < 4.37 |  | 
CCOc1cc(C2C3=C(CC(C)(C)CC3=O)Nc3ccccc3N2C(C)=O)ccc1O (stereo not shown) [compound 121] | < 4.49 | < 4.37 |  | 
CC(=O)N1c2ccccc2NC2=C(C(=O)CC(C)(C)C2)C1c1ccc(N(C)C)cc1 (stereo not shown) [compound 122] | < 4.49 | < 4.37 |  | 
CCCOc1cccc(C2C3=C(CC(C)(C)CC3=O)Nc3ccccc3N2C(C)=O)c1 (stereo not shown) [compound 123] | < 4.49 | < 4.37 |  | 
COc1cc(C2C3=C(CC(C)(C)CC3=O)Nc3ccccc3N2C(C)=O)ccc1OCc1ccccc1 (stereo not shown) [compound 124] |  |  | 4.54 | 5.07
CCOc1ccccc1C1C2=C(CC(C)(C)CC2=O)Nc2ccccc2N1C(C)=O (stereo not shown) [compound 125] | < 4.49 | < 4.37 |  | 
CC(=O)N1c2ccccc2NC2=C(C(=O)CC(C)(C)C2)C1c1cccc(Cl)c1 (stereo not shown) [compound 126] | < 4.49 | < 4.37 |  | 
CCCCOc1ccc(C2C3=C(CC(C)(C)CC3=O)Nc3ccccc3N2C(C)=O)cc1 (stereo not shown) [compound 127] | 4.94 | < 4.37 |  | 
COc1ccccc1C1C2=C(CC(C)(C)CC2=O)Nc2ccccc2N1C(C)=O (stereo not shown) [compound 128] | < 4.49 | < 4.37 |  | 
